Data: article PMC11903733 (Frontiers in Pharmacology, 2025)

Tests used:
Assay in all cases: SelectScreen kinase profiling
Type in all cases: biochemical
[1] = biological target: CDK13 (Homo sapiens, UniProt Q14004)
Description: (§1) The kinase selectivity analysis of LTM-1 was performed utilizing the SelectScreen Kinase Profiling Service offered by Thermo Fisher Scientific. In a dose-response assay featuring a ten-point dilution series from 0.25 μM to 128 μM, the inhibitory effects of LTM-1 on substrate phosphorylation reactions catalyzed by a panel of kinases were assessed. Consequently, the half-maximal inhibitory concentrations (IC50 values) for each kinase were determined.

[2] = biological target: CDK8 (Homo sapiens, UniProt P49336)
Description: as §1

[3] = biological target: DDR2 (Homo sapiens, UniProt Q16832)
Description: as §1

[4] = biological target: EPHA1 (Homo sapiens, UniProt P21709)
Description: as §1

[5] = biological target: EPHB2 (Homo sapiens, UniProt P29323)
Description: as §1

[6] = biological target: FGFR1 (Homo sapiens, UniProt P11362)
Description: as §1

[7] = biological target: JAK1 (Homo sapiens, UniProt P23458)
Description: as §1

[8] = biological target: FGR (Homo sapiens, UniProt P09769)
Chain of FGR (P09769 whole entry): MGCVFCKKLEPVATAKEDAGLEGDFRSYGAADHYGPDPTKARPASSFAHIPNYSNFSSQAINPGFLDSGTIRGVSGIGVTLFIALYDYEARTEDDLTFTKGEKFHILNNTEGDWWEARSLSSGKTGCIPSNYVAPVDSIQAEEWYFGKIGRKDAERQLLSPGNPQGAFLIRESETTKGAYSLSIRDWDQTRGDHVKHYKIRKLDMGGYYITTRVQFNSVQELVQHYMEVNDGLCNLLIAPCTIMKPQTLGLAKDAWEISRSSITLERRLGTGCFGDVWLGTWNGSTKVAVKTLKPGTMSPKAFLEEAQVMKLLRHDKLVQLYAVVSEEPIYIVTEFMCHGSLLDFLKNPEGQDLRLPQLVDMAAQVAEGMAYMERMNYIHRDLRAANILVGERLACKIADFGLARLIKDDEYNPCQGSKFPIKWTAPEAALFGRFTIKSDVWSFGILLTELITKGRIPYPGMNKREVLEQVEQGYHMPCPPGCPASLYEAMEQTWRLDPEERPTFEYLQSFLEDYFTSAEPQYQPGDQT
Description: as §1

[9] = biological target: CDK1 (Homo sapiens, UniProt P06493)
Description: as §1

[10] = biological target: MERTK (Homo sapiens, UniProt Q12866)
Description: as §1

[11] = biological target: EPHB3 (Homo sapiens, UniProt P54753)
Chain of EPHB3 (P54753 34-998): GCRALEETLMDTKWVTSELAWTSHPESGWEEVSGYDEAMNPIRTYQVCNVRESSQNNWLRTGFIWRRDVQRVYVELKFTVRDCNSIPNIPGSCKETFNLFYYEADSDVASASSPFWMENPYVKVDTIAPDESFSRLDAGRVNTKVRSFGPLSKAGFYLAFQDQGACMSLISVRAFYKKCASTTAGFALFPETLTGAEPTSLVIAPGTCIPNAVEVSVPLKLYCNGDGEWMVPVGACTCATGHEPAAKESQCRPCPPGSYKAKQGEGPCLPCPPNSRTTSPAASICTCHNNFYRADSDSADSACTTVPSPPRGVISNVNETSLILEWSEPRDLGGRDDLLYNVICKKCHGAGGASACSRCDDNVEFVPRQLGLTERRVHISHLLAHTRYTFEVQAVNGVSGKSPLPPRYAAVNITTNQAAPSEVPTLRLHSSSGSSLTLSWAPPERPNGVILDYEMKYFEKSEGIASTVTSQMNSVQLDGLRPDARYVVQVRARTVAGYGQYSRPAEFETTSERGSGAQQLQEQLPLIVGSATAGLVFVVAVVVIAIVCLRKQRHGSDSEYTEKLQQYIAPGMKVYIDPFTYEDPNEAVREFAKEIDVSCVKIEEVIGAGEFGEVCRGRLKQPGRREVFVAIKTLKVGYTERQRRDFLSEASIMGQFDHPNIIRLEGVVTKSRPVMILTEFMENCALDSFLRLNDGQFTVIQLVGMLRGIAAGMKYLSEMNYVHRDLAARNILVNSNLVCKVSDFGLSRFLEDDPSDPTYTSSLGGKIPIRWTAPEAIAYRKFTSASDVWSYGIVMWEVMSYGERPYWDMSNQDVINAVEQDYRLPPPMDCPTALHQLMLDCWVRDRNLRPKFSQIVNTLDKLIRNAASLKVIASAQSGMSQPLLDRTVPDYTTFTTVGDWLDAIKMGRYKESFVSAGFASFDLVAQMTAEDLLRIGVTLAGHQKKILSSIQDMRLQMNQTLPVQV
Description: as §1

[12] = biological target: CDK19 (Homo sapiens, UniProt Q9BWU1)
Description: as §1

[13] = biological target: CDK4 (Homo sapiens, UniProt P11802)
Description: as §1

[14] = biological target: CDK7 (Homo sapiens, UniProt P50613)
Description: as §1

[15] = biological target: PLK2 (Homo sapiens, UniProt Q9NYY3)
Description: as §1

[16] = biological target: PDGFRB (Homo sapiens, UniProt P09619)
Description: as §1

[17] = biological target: PTK2 (Homo sapiens, UniProt Q05397)
Chain of PTK2 (Q05397 whole entry): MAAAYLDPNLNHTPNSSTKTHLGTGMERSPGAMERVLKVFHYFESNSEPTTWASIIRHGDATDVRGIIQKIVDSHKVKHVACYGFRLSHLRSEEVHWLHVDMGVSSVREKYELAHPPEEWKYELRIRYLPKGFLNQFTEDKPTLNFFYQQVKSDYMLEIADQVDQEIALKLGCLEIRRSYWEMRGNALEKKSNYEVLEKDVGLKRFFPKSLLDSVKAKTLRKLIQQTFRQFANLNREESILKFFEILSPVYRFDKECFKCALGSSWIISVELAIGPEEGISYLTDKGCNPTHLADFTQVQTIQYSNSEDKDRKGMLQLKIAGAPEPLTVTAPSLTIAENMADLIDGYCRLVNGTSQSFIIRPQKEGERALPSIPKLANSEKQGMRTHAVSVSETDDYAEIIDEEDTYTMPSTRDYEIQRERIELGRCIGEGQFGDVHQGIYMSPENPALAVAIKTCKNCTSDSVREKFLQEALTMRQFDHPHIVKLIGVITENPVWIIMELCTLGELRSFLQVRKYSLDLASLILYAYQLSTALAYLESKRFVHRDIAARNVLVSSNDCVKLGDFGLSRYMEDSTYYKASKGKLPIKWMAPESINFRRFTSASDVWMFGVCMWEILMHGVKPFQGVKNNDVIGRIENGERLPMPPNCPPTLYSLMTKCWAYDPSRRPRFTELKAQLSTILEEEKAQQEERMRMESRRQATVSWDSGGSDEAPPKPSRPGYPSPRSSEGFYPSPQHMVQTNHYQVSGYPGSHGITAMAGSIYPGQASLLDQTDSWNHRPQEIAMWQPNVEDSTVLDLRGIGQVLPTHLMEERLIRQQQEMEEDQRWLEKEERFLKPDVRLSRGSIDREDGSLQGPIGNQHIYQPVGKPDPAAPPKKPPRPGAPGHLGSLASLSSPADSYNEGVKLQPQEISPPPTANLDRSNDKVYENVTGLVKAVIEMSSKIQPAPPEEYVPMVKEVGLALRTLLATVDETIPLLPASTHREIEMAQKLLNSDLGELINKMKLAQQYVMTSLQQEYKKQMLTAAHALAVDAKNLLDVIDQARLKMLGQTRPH
Description: as §1

[18] = biological target: EPHB4 (Homo sapiens, UniProt P54760)
Description: as §1

[19] = biological target: ITK (Homo sapiens, UniProt Q08881)
Chain of ITK (Q08881 whole entry): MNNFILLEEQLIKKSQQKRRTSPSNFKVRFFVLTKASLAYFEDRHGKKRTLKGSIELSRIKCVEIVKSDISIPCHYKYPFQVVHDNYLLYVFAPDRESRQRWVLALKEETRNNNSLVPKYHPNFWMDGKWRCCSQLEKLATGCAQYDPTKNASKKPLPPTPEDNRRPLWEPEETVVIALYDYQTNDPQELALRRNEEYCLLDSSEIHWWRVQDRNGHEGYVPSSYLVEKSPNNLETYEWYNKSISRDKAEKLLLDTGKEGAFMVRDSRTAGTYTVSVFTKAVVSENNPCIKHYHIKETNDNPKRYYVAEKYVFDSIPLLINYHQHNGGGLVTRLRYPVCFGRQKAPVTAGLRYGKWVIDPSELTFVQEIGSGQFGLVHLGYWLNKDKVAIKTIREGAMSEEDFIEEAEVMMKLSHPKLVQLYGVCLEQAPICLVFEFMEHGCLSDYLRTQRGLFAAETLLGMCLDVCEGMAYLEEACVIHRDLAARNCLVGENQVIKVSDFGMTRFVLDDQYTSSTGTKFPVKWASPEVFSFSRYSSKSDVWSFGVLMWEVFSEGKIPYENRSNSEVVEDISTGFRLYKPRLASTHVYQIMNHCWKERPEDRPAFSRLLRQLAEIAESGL
Description: as §1

[20] = biological target: NTRK3 (Homo sapiens, UniProt Q16288)
Description: as §1

[21] = biological target: MUSK (Homo sapiens, UniProt O15146)
Chain of MUSK (O15146 24-869): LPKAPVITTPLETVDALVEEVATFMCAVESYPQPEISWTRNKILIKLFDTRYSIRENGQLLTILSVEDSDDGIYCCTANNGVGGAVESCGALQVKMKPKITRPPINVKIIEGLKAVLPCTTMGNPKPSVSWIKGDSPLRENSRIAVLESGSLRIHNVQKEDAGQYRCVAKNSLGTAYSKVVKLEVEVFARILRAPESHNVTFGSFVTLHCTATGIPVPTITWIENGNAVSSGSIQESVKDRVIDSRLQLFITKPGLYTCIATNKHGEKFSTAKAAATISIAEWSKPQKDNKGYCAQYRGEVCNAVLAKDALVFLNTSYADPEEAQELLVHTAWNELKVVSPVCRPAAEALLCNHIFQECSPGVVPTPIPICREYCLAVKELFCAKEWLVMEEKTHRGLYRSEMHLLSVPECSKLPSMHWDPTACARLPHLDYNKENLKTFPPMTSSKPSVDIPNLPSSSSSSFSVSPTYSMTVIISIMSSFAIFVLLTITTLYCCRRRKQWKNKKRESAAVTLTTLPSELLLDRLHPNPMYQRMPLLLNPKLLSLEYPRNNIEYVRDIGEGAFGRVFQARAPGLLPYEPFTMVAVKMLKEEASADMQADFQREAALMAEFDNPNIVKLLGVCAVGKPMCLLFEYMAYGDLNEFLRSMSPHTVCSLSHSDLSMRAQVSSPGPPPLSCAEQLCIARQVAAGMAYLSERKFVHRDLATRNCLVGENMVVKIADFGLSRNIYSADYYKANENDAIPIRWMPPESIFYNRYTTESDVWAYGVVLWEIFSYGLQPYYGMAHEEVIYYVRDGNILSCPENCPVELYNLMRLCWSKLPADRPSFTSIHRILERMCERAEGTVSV
Description: as §1

[22] = biological target: CDK2 (Homo sapiens, UniProt P24941)
Description: as §1

[23] = biological target: FYN (Homo sapiens, UniProt P06241)
Description: as §1

[24] = biological target: BLK (Homo sapiens, UniProt P51451)
Description: as §1

[25] = biological target: KIT (Homo sapiens, UniProt P10721)
Description: as §1

[26] = biological target: LYN (Homo sapiens, UniProt P07948)
Description: as §1

[27] = biological target: CDK12 (Homo sapiens, UniProt Q9NYV4)
Description: as §1

[28] = biological target: FGFR4 (Homo sapiens, UniProt P22455)
Description: as §1

[29] = biological target: PLK1 (Homo sapiens, UniProt P53350)
Chain of PLK1 (P53350 whole entry): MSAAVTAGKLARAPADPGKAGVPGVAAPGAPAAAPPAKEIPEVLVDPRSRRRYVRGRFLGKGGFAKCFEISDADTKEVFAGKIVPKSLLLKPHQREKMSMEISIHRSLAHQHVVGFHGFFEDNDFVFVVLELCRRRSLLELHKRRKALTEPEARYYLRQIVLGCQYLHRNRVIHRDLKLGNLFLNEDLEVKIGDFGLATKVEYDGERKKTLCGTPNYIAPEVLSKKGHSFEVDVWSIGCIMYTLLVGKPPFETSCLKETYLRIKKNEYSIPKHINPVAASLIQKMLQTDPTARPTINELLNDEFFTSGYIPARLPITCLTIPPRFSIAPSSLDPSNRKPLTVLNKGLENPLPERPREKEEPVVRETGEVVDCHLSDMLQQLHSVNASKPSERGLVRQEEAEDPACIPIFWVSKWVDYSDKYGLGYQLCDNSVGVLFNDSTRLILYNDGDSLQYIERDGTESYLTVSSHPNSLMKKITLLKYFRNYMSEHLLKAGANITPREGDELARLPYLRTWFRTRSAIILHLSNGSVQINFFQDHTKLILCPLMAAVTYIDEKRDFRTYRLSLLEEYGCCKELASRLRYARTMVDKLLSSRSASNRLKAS
Description: as §1

[30] = biological target: PIM1 (Homo sapiens, UniProt P11309)
Chain of PIM1 (P11309 whole entry): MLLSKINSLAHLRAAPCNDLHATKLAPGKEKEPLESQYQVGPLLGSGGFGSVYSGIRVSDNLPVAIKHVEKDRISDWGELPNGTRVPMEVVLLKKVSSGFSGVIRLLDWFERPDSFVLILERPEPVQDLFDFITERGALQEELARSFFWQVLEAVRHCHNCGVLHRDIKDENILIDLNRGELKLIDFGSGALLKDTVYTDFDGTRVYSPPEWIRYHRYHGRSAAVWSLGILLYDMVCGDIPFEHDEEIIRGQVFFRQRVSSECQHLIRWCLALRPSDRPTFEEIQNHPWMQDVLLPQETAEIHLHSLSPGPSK
Description: as §1

[31] = biological target: AXL (Homo sapiens, UniProt P30530)
Description: as §1

[32] = biological target: ROS1 (Homo sapiens, UniProt P08922)
Description: as §1

[33] = biological target: KDR (Homo sapiens, UniProt P35968)
Description: as §1

[34] = biological target: RAF1 (Homo sapiens, UniProt P04049, Y340D/Y341D)
Description: as §1

[35] = biological target: ABL1 (Homo sapiens, UniProt P00519)
Description: as §1

[36] = biological target: BTK (Homo sapiens, UniProt Q06187)
Description: as §1

[37] = biological target: FES (Homo sapiens, UniProt P07332)
Description: as §1

[38] = biological target: ZAK (Homo sapiens, UniProt Q9NYL2)
Description: as §1

[39] = biological target: LTK (Homo sapiens, UniProt P29376)
Description: as §1

[40] = biological target: CDK3 (Homo sapiens, UniProt Q00526)
Description: as §1

[41] = biological target: CDK6 (Homo sapiens, UniProt Q00534)
Description: as §1

[42] = biological target: MST1R (Homo sapiens, UniProt Q04912)
Description: as §1

[43] = biological target: ALK (Homo sapiens, UniProt Q9UM73)
Description: as §1

IC50 [1]: > 10 µM
IC50 [2]: > 10 µM
IC50 [3]: > 10 µM
IC50 [4]: > 10 µM
IC50 [5]: > 10 µM
IC50 [6]: > 10 µM
IC50 [7]: > 10 µM
IC50 [8]: > 10 µM
IC50 [9]: > 10 µM
IC50 [10]: > 10 µM
IC50 [11]: > 10 µM
IC50 [12]: > 10 µM
IC50 [13]: > 10 µM
IC50 [14]: > 10 µM
IC50 [15]: > 10 µM
IC50 [16]: > 10 µM
IC50 [17]: > 10 µM
IC50 [18]: > 10 µM
IC50 [19]: > 10 µM
IC50 [20]: > 10 µM
IC50 [21]: > 10 µM
IC50 [22]: > 10 µM
IC50 [23]: > 10 µM
IC50 [24]: > 10 µM
IC50 [25]: > 10 µM
IC50 [26]: > 10 µM
IC50 [27]: > 10 µM
IC50 [28]: > 10 µM
IC50 [29]: > 10 µM
IC50 [30]: > 10 µM
IC50 [31]: > 10 µM
IC50 [32]: > 10 µM
IC50 [33]: > 10 µM
IC50 [34]: > 10 µM
IC50 [35]: > 10 µM
IC50 [36]: > 10 µM
IC50 [37]: > 10 µM
IC50 [38]: > 10 µM
IC50 [39]: > 10 µM
IC50 [40]: > 10 µM
IC50 [41]: > 10 µM
IC50 [42]: > 10 µM
IC50 [43]: > 10 µM
Compound: O=S(=O)(c1ccc(C(O)CO)c(C(F)(F)F)c1)N1CCc2cc(C3CC3NCC3CCNCC3)ccc21 (stereo not shown) [LTM-1]
